ChEMBL document CHEMBL4316582, “Nitro-Group-Containing Drugs” (J Med Chem, 2019)
In brackets after ≈: the same amount, converted by molar mass.

Tests used:
SK-OV-3 = assay: Cytotoxicity against human SKOV3 cells; assay type: functional, cell-based
[1] = test system: Mycobacterium tuberculosis; assay: Antitubercular activity against Mycobacterium tuberculosis H37Ra after 8 days by visual analysis; assay type: functional; conditions: 192 h
Quinone oxidoreductase = target: T1, Quinone oxidoreductase (Homo sapiens, UniProt Q08257); assay: Inhibition of human Quinone oxidoreductase
T1 sequence (Q08257 whole entry): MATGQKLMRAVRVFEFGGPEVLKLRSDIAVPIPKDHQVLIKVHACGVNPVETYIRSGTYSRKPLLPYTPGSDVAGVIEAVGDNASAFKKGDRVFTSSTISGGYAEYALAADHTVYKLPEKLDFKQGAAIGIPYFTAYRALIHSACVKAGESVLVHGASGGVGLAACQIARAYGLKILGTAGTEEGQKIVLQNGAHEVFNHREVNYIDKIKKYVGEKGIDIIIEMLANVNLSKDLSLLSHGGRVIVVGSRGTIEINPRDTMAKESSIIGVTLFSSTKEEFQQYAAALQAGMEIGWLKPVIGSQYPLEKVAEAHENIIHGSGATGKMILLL

NCI-H460 [2] = assay: Antiproliferative activity against human NCI-H460 cells; assay type: functional, cell-based
NCI-H460 [3] = assay: Antiproliferative activity against human NCI-H460 cells in presence of O2; assay type: functional, cell-based
NCI-H460 [4] = assay: Antiproliferative activity against human NCI-H460 cells in presence of N2; assay type: functional, cell-based
HT-29 = assay: Cytotoxicity against human HT-29 cells assessed as reduction in cell viability after 2 hrs by Alamar blue assay; assay type: functional, cell-based; conditions: HT-29, 2 h
NCI-H460 [5] = assay: Cytotoxicity against human NCI-H460 cells assessed as reduction in cell viability after 2 hrs by Alamar blue assay; assay type: functional, cell-based; conditions: NCI-H460, 2 h
[6] = target: Epidermal growth factor receptor (Homo sapiens, UniProt P00533); assay: Inhibition of erbB1 (unknown origin) using FRET-capable peptide substrate by FRET assay
Sequence of Epidermal growth factor receptor (P00533 whole entry): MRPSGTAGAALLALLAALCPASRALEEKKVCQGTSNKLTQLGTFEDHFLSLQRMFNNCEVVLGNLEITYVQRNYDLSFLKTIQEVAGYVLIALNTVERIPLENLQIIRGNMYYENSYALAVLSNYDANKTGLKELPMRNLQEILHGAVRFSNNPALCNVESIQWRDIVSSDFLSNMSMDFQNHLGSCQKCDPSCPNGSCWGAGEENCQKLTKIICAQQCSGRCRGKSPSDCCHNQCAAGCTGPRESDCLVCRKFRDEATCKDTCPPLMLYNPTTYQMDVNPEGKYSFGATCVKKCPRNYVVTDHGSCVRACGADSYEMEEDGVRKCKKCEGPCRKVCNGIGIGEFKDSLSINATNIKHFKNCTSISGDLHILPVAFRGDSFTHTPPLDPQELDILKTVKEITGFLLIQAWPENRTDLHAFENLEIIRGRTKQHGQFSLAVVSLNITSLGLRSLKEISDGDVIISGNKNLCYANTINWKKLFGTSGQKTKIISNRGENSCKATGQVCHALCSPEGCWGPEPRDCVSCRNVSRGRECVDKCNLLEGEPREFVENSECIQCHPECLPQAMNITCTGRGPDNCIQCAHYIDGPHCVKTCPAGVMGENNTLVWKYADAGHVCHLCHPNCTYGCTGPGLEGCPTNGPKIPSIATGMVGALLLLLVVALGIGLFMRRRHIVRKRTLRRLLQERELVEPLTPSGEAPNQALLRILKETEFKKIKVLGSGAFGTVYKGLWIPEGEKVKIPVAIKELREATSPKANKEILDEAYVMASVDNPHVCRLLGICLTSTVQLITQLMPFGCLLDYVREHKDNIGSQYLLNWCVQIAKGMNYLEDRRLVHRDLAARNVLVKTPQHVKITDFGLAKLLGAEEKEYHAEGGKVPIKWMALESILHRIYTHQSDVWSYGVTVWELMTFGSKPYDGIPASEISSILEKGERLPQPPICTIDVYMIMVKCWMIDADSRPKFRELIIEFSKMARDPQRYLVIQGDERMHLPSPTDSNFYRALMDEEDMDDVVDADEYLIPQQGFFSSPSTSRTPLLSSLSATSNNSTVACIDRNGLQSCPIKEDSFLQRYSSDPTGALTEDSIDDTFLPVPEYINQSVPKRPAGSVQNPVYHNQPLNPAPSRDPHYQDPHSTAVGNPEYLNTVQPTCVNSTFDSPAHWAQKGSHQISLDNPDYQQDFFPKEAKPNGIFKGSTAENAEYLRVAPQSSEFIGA

[7] = Cytotoxicity against human MiaPaCa cells assessed as reduction in cell viability after 2 hrs by Alamar blue assay; assay type: functional, cell-based; conditions: MIA PaCa-2, 2 h
[8] = test system: Mycobacterium tuberculosis; assay: Antitubercular activity against drug-sensitive Mycobacterium tuberculosis; assay type: functional
[9] = test system: Mycobacterium tuberculosis; assay: Antitubercular activity against Mycobacterium tuberculosis; assay type: functional
NCI-H460 [10] = assay: Cytotoxicity against human NCI-H460 cells assessed as reduction in cell viability after 2 hrs under hypoxic conditions by Alamar blue assay; assay type: functional, cell-based; conditions: NCI-H460, 2 h
NCI-H460 [11] = assay: Cytotoxicity against human NCI-H460 cells assessed as reduction in cell viability after 2 hrs under normoxic conditions by Alamar blue assay; assay type: functional, cell-based; conditions: NCI-H460, 2 h
NCI-H460 [12] = assay: Ratio of IC50 for antiproliferative activity against human NCI-H460 cells in presence of O2 to antiproliferative activity against human NCI-H460 cells in presence of N2; assay type: functional
Hep 3B2 [13] = assay: Cytotoxicity against human Hep3B cells after 24 hrs under hypoxic condition by MTS assay; assay type: functional, cell-based
Hep 3B2 [14] = assay: Cytotoxicity against human Hep3B cells after 24 hrs by MTS assay; assay type: functional, cell-based
[15] = target: T2, Oxygen-insensitive NAD(P)H nitroreductase (Escherichia coli K-12, UniProt P38489); assay: Susbtrate activity at Escherichia coli nitroreductase assessed as half life; assay type: ADME
T2 sequence (P38489 whole entry): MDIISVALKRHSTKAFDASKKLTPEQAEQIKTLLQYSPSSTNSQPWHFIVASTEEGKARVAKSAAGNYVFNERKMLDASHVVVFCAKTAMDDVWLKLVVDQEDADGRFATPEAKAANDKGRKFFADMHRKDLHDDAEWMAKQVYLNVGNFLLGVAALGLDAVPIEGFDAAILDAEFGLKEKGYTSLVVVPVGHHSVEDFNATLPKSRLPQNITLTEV

[16] = Inhibition of Escherichia coli nitroreductase F179 mutant
[17] = target: T2, Oxygen-insensitive NAD(P)H nitroreductase; assay: Inhibition of Escherichia coli nitroreductase expressed in human HCT116 cells; assay type: cell-based

## CC(OP(N)(=O)N(CCCl)CCCl)c1ccc([N+](=O)[O-])cc1 (stereo unspecified)
SK-OV-3
  IC50: 1800 nM

## COc1cc([N+](=O)[O-])ccc1COP(N)(=O)N(CCCl)CCCl (stereo unspecified)
SK-OV-3
  IC50: 1800 nM

## COc1cc(COP(N)(=O)N(CCCl)CCCl)ccc1[N+](=O)[O-] (stereo unspecified)
SK-OV-3
  IC50: 3100 nM

## Cc1cc(COP(N)(=O)N(CCCl)CCCl)ccc1[N+](=O)[O-] (stereo unspecified)
SK-OV-3
  IC50: 3300 nM

## NP(=O)(OCc1ccc([N+](=O)[O-])cc1)N(CCCl)CCCl (stereo unspecified)
SK-OV-3
  IC50: 1100 nM

## COc1ccc(CNC(=O)c2ccc([N+](=O)[O-])o2)cc1OC
[1]
  MIC: 0.2 µM (≈ 0.0613 µg/mL)

## O=[N+]([O-])c1ccc(C2CCOP(=O)(N(CCCl)CCCl)N2)cc1 (stereo unspecified)
Quinone oxidoreductase
  IC50: 48000 nM

## COC(=O)c1cc(COP(N)(=O)N(CCCl)CCCl)ccc1[N+](=O)[O-] (stereo unspecified)
SK-OV-3
  IC50: 2100 nM

## Cn1c(COP(=O)(N(CCCl)CCCl)N(CCCl)CCCl)ccc1[N+](=O)[O-]
NCI-H460 [2]
  IC50: > 1000 nM
NCI-H460 [3]
  IC50: 850 nM
NCI-H460 [4]
  IC50: 7 nM

## CC#Cc1c(OC)ccc2c(C(=O)c3cc(OC)c(OC)c(OC)c3)nn(C[N+](C)(C)Cc3c(CC)nc([N+](=O)[O-])n3C)c12
HT-29
  IC50: 9 nM
NCI-H460 [5]
  IC50: 42 nM

## C[N+](C)(C/C=C/C(=O)Nc1ccc2ncnc(Nc3cccc(Br)c3)c2c1)Cc1ccc([N+](=O)[O-])cc1
[6]
  IC50: 0.22 to 0.56 nM

## CC#Cc1c(OC)ccc2c(C(=O)c3cc(OC)c(OC)c(OC)c3)nn(C[N+](C)(C)Cc3c(-c4ccccc4)nc([N+](=O)[O-])n3C)c12
HT-29
  IC50: 6 nM
NCI-H460 [5]
  IC50: 12 nM
[7]
  IC50: 16 nM

## O=[N+]([O-])C1CN2C[C@H](OCc3ccc(OC(F)(F)F)cc3)COC2=N1 (stereo partly specified)
[8]
  MIC: 0.039 to 0.531 µg/mL (≈ 0.108 to 1.47 µM)
[9]
  MIC: < 2.8 µM

## [O-]/[N+](O)=C1/CN2C[C@H](OCc3ccc(OC(F)(F)F)cc3)COC2=N1
[8]
  MIC: 0.039 to 0.531 µg/mL (≈ 0.108 to 1.47 µM)
[9]
  MIC: < 2.8 µM

## CC#Cc1c(OC)ccc2c(C(=O)c3cc(OC)c(OC)c(OC)c3)nn(C[N+](C)(C)Cc3c(Br)nc([N+](=O)[O-])n3C)c12
HT-29
  IC50: 10 nM
NCI-H460 [5]
  IC50: 28 nM
[7]
  IC50: 28 nM

## COc1cccc2c1C(=O)c1c(O)c3c(c(O)c1C2=O)C[C@@](O)(C(C)=O)C[C@@H]3O[C@H]1C[C@H](NCCCCn2ccnc2[N+](=O)[O-])[C@H](O)[C@H](C)O1
NCI-H460 [10]
  IC50: 4 nM
NCI-H460 [11]
  IC50: 5700 nM

## NC(=O)c1cc([N+](=O)[O-])cnc1N1CC1
NCI-H460 [12]
  Ratio IC50: 21.3
NCI-H460 [3]
  IC50: 198000 nM
NCI-H460 [4]
  IC50: 9300 nM

## CC#Cc1c(OC)ccc2c(C(=O)c3cc(OC)c(OC)c(OC)c3)nn(C[N+](C)(C)Cc3c(-c4ccc(F)cc4)nc([N+](=O)[O-])n3C)c12
HT-29
  IC50: 25 nM
NCI-H460 [5]
  IC50: 31 nM
[7]
  IC50: 25 nM

## Cn1cc([N+](=O)[O-])nc1C[N+](C)(C)C/C=C/C(=O)Nc1ccc2ncnc(Nc3cccc(Br)c3)c2c1
[6]
  IC50: 0.22 to 0.56 nM

## COc1ccc(C[C@@H](C)[C@@H](C)Cc2ccc(OC)c(OCCOCCOCCOCCn3ccnc3[N+](=O)[O-])c2)cc1OC
Hep 3B2 [13]
  IC50: 53200 nM
Hep 3B2 [14]
  IC50: 12600 nM

## NC(=O)c1ccnc(N2CC2)c1[N+](=O)[O-]
NCI-H460 [12]
  Ratio IC50: 52.5
NCI-H460 [3]
  IC50: 142000 nM
NCI-H460 [4]
  IC50: 2700 nM

## O=[N+]([O-])c1ccc2c(c1)NP(=O)(N(CCCl)CCCl)NC2 (stereo unspecified)
[15]
  half-life: 7.8 min

## Cn1ncc([N+](=O)[O-])c1C[N+](C)(C)C/C=C/C(=O)Nc1ccc2ncnc(Nc3cccc(Br)c3)c2c1
[6]
  IC50: 0.22 to 0.56 nM

## O=[N+]([O-])c1ccc2c(c1)OP(=O)(N(CCCl)CCCl)NC2 (stereo unspecified)
[16]
  IC50: 61000 nM
[17]
  IC50: 48000 nM
Quinone oxidoreductase
  IC50: 48000 nM
[15]
  half-life: 11 min

## COc1cccc2c1C(=O)c1c(O)c3c(c(O)c1C2=O)C[C@@](O)(C(C)=O)C[C@@H]3O[C@H]1C[C@H](N(COCCn2ccnc2[N+](=O)[O-])COCCn2ccnc2[N+](=O)[O-])[C@H](O)[C@H](C)O1
NCI-H460 [10]
  IC50: 50 nM
NCI-H460 [11]
  IC50: 20000 nM
